Experimental data taken from publication PMC10233092, “Selective Janus kinase 1 inhibition resolves inflammation and restores hair growth offering a viable treatment option for alopecia areata” (Skin Health and Disease, 2023).
Values joined by “and” are separate entries in the source; they are usually repeats but may differ in a detail not shown here. Equal entries are not always repeated.

What was measured:
IL‐4, STAT6‐Luc = experiment: IL-4-induced JAK-STAT6-luciferase assay in U937 monocytes; type: cell-based; settings: Homo sapiens, U-937, interleukin at EC80
[1] = Solubility in phosphate buffer; type: physicochemical; settings: pH 7.4, aqueous buffer
Excerpt: TABLE 1 In vitro potency and selectivity of JAK inhibitors | column: Solubility (μM) ^c

Basic pKa = type: physicochemical; settings: read-out: Basic pKa's
Excerpt: TABLE 2 In vitro and in vivo DMPK properties of Cmpd A, B & C | column: In vitro mouse & physical chemical properties / Basic pKa's

[2] = Plasma protein binding by equilibrium dialysis; type: in vitro ADME; settings: mouse plasma
Excerpt: (§1) Detailed description in Supplementary materials.

[3] = Unbound fraction in tissue from rearranged Gillette equation; type: in vitro ADME, mouse
Excerpt: as §1

[4] = Caco permeability and efflux; type: in vitro ADME; settings: human, Caco-2
Excerpt: TABLE 2 In vitro and in vivo DMPK properties of Cmpd A, B & C | column: In vitro mouse & physical chemical properties / Caco AtB 10^−6 cm/s/Efflux ratio ^b

[5] = Mouse pharmacokinetics i.v./p.o.; type: in vivo; settings: plasma, male C57Bl6 mice
Method: as §1
Pharmacokinetics and evaluation of compound exposures: Male C57/BL mice were obtained from Si Bei Fu and weighed approximately 20-30 grams (7-9 weeks) at the start of the pharmacokinetic study. Animals had free access to food and water during the course of the experiment. Dose formulations were prepared on the study day and were stirred at room temperature for at least 15 minutes prior dosing and during the administration event. Cmpd A, B and C were dosed at 0.5-1 mg/kg i.v. and 1-300 mg/kg p.o. The dorsal metatarsal vein was used for sampling and typically 0.02 mL blood was withdrawn. Blood was taken at 2, 5, 15, 45 min, 2, 4, 8, 24 hours post the i.v. dose and at 15, 30 min, 1, 2, 4, 8, 24 hours post the p.o. dose. Blood of each sample was transferred into plastic micro centrifuge tubes containing 2 μL of 1000 IU Heparin-Na anticoagulant. These tubes were then inverted several times and placed on wet ice prior to centrifugation at 10,000 rpm for 2 minutes at 4°C in order to collect plasma. Plasma samples were stored at -75±15°C prior analysis. Compound concentrations were analyzed using a LC-MS/MS method (see below).
Effective T1/2 equals Ln2 x Vss/CL.

[6] = tested on: C3H/HeJ mouse model of AA; experiment: Hair growth (Hair Index Score) in C3H/HeJ graft-induced AA mice; type: in vivo; settings: for Hair index score (% area x score, 0 to 3): individual mice and mean±SD
Method: Female C3H/HeJ graft‐induced mice were used as a preclinical model of Alopecia Areata (AA) according to previous publications.[45], [46], [47] Healthy C3H/HeJ and mice with fully developed AA (16–24 weeks after induction of disease) were monitored by means of body weight and hair index score on a weekly basis for 12 weeks, with free access to food and water (Healthy and AA groups, respectively).
Hair growth was evaluated using a scoring index (Hair Index Score, HIS). A score from 0 to 3 (0 = no fur, 1 = stubble, short broken hairs, 2 = sparse, intermediate length hairs, 3 = normal length and density hairs) was taken times the surface area of the mouse with each respective score (dorsal area = 50%, ventral area = 50%).
12 mice were given once daily servings of Cmpd A for free eating at approximately 100 mg/kg (compound dissolved in 10 ml tap water and mixed with 5 g grounded R70 standard rodent chow from Lantmännen, Sweden) for 4 weeks. Typically, these servings were finished within 2 h. Six mice were terminated at the end of the treatment period, blood and skin taken for determination of drug concentration and skin sampled for histopathological evaluation (see below, these mice are representing the systemic JAK1 inhibition group in histopathological evaluations). Skin biopsies for mRNA expression and blood was sampled from the other 6 mice where after these mice were followed off treatment for an additional 8 weeks when terminal samples were taken (8w off Tx group).
Another set of 6 mice were treated topically on the right side of their back with Cmpd B (0.1% cream formulation, Eucerin Aquaporin rich) for 12 weeks (local JAK1 inhibition group). Initially, twice weekly for 2 weeks followed by once weekly due to high tissue retention. Plasma exposure was evaluated during the course of the study as well as at termination when also skin was sampled for exposure, histopathological evaluation and mRNA expression.
The aim of the study was to achieve similar skin exposures by both routes of administration but only systemic exposure after oral administration. […] Blood, skin, lymph nodes and spleens were collected at termination for evaluation of exposure, mRNA expression, histopathology (RNAScope) and cell differentials (flow cytometry). Untreated healthy and alopecic mice served as controls (n = 6).

Work on `Cc1cnc(Nc2cccnc2F)nc1-c1c[nH]c2c(NC(=O)[C@@H](C)N3CCN(C)CC3)cccc12` [Cmpd A] yielded an IC50 (IL‐4, STAT6‐Luc) of 0.084 µM, a solubility [1] of over 337 µM and a pKa (Basic pKa) of 7.9. The “f u, plasma” value [2] was 0.038, the “f u, tissue” value ([3]; mouse, from rearranged Gillette equation, V blood 0.07 L/kg, V tissue 0.6 L/kg) was 0.003 and the “unbound fraction in plasma compared to skin” value ([3]; skin value estimated from the Gillette equation) was about 10 fold. For the same compound, the efflux ratio ([4]; Efflux ratio = BtA/AtB) was 1, the Papp A→B ([4]; read-out: Caco AtB) was 210 nm/s and the clearance ([5]; iv, i.v. 0.5-1.0 mg/kg) was 1.92 L/h/kg. The Vd ([5]; iv, i.v. 0.5-1.0 mg/kg, read-out: V ss) was 9.1 L/kg, the bioavailability ([5]; po, p.o. 300 (A), 1.0 (B), 2.0 (C) mg/kg, read-out: Oral % F) was 100% and the “remission after treatment cessation” value ([6]; AA mice, 4 weeks treatment, followed 8 weeks off treatment) was “relapsed after treatment cessation”. For the same compound, the “hair growth, result in words” value ([6]; AA mice, oral daily servings (systemic exposure)) was “quick and complete restoration of hair growth”, the “time to complete regrowth (Hair Index Score)” value ([6]; AA mice, oral treatment, n = 6 per group) was at most 4 weeks and the “Hair index score (% area x score, 0 to 3)” value ([6]; Systemic JAK1i group terminated at w4 (oral ~100 mg/kg daily), w0, n=6, 100 mg/kg) was 0 and 20. The “Hair index score (% area x score, 0 to 3)” value ([6]; Systemic JAK1i group terminated at w4 (oral ~100 mg/kg daily), w0, n=6, 100 mg/kg, mean) was 3±8, the “Hair index score (% area x score, 0 to 3)” value ([6]; Systemic JAK1i group terminated at w4, w1) was 0 and 15 and 10 and the “Hair index score (% area x score, 0 to 3)” value ([6]; Systemic JAK1i group terminated at w4, w1, mean) was 7±7. For the same compound, the “Hair index score (% area x score, 0 to 3)” value ([6]; Systemic JAK1i group terminated at w4, w2) was 160 and 170 and 180 and 120 and 190, the “Hair index score (% area x score, 0 to 3)” value ([6]; Systemic JAK1i group terminated at w4, w2, mean) was 163±24 and the “Hair index score (% area x score, 0 to 3)” value ([6]; Systemic JAK1i group terminated at w4, w3) was 280 and 285 and 290 and 250 and 295. For the same compound, the “Hair index score (% area x score, 0 to 3)” value ([6]; Systemic JAK1i group terminated at w4, w3, mean) was 280±16, the “Hair index score (% area x score, 0 to 3)” value ([6]; Systemic JAK1i group terminated at w4, w4) was 300 and the “Hair index score (% area x score, 0 to 3)” value ([6]; Systemic JAK1i group terminated at w4, w4, mean) was 300±0. For the same compound, the “Hair index score (% area x score, 0 to 3)” value ([6]; Systemic JAK1i group treated 4 weeks then followed off treatment, w0, n=6) was 125 and 50 and 20 and 90, the “Hair index score (% area x score, 0 to 3)” value ([6]; Systemic JAK1i group treated 4 weeks then followed off treatment, w0, n=6, mean) was 71±38 and the “Hair index score (% area x score, 0 to 3)” value ([6]; Systemic JAK1i group treated 4 weeks then off treatment, w1) was 125 and 50 and 20 and 90. For the same compound, the “Hair index score (% area x score, 0 to 3)” value ([6]; Systemic JAK1i group treated 4 weeks then off treatment, w1, mean) was 71±38, the “Hair index score (% area x score, 0 to 3)” value ([6]; Systemic JAK1i group treated 4 weeks then off treatment, w2) was 170 and 200 and 140 and 180 and 190 and the “Hair index score (% area x score, 0 to 3)” value ([6]; Systemic JAK1i group treated 4 weeks then off treatment, w2, mean) was 180±23. For the same compound, the “Hair index score (% area x score, 0 to 3)” value ([6]; Systemic JAK1i group treated 4 weeks then off treatment, w4) was 285 and 295 and 300, the “Hair index score (% area x score, 0 to 3)” value ([6]; Systemic JAK1i group treated 4 weeks then off treatment, w4, mean) was 295±5 and the “Hair index score (% area x score, 0 to 3)” value ([6]; Systemic JAK1i group treated 4 weeks then off treatment, w8 (4 weeks off)) was 245 and 200 and 210 and 195 and 270 and 75. The “Hair index score (% area x score, 0 to 3)” value ([6]; Systemic JAK1i group treated 4 weeks then off treatment, w8 (4 weeks off), mean) was 199±67, the “Hair index score (% area x score, 0 to 3)” value ([6]; Systemic JAK1i group treated 4 weeks then off treatment, w12 (8 weeks off)) was 90 and 60 and 85 and 45 and 205 and 35 and the “Hair index score (% area x score, 0 to 3)” value ([6]; Systemic JAK1i group treated 4 weeks then off treatment, w12 (8 weeks off), mean) was 87±62.
